Earlier results, collected in patent publication US20220008494A1, “COMPOSITION FOR USE IN THE PREVENTION AND/OR SYMPTOMATIC TREATMENT OF IRRITABLE BOWEL SYNDROME” (priority 2018, published 2022).

Tests used:
[1] = system: carrageenan-induced edema; conditions: 10 mg/kg p.o.; from 1 to 24 h (p<0.01) compared to the control
[2] = system: tail withdrawal reaction time; conditions: rat, in vivo
IBS patients = conditions: 300 mg per day as adjunct to standard therapies
[3] = 1 g/day butyric acid and inulin for 1 month, IBS-D compared to IBS-C patients

Q: Which “edema (paw volume, plethysmometrically)” value [1] does the source give for `O=C(O)Cc1ccccc1Nc1c(Cl)cccc1Cl` [Diclofenac, Diclofenac sodium] here?
A: significant decrease

Q: For `CC(C)=CCN1CCC2(C)c3cc(O)ccc3CC1C2C` (stereo not shown) [Pentazocine], which “reaction time (tail withdrawal)” value [2] is on record?
A: significant increase

Q: With `CCCC(=O)O` [butyric acid] as the compound, how does the “frequency of abdominal pain associated with defecation” value (IBS patients; fourth week of treatment) read?
A: significant decrease

Q: What about the defecation-associated pain (IBS patients; twelfth week) of the same compound?
A: also decrease

Q: What about the post-defecation stimulus (IBS patients; twelfth week) of the same compound?
A: also decrease

Q: And the post-prandial abdominal pain (IBS patients; twelfth week)?
A: also decrease

Q: What about the spontaneous abdominal pain (IBS patients; twelfth week) of the same compound?
A: also decrease

Q: What about the “condition of IBS-D patients” value (IBS-D patients; 1 g/day butyric acid (4 x 250 mg capsules) and inulin for 1 month) of the same compound?
A: normalization

Q: What about the “frequency of diarrhea episodes” value (IBS-D patients; [3]) of the same compound?
A: significant reduction

Q: And the stool consistency (IBS-D patients; [3])?
A: significant increase
